Data published in patent US20080274883A1, “Fungicidal Mixtures” (BASF AKTIENGESELLSCHAFT, priority 2004, published 2008).

Experiments:
[1] = system: Erysiphe [syn. Blumeria] graminis form a specialis. tritici; assay: Efficacy against wheat mildew caused by Erysiphe [syn. Blumeria] graminis forma specialis tritici; format: in vivo; settings: wheat seedlings sprayed, dusted with spores 24 hours later, rated after 7 days, untreated control 90% infestation
Phytophthora infestans = format: in vivo, Phytophthora infestans on potted tomato plants; settings: 1 ppm; protective spray on tomato leaves, infested next day, rated after 6 days; efficiency by Abbot's formula vs untreated control (90% infestation)

COc1ccc(C(=CC(=O)N2CCOCC2)c2ccc(F)cc2)cc1OC [flumorph (IIA), 4-[3-(3,4-dimethoxyphenyl)-3-(4-fluorophenyl)-1-oxo-2-propenyl]morpholine]
Observed action (%) ([1]; 4 ppm): 0%

COc1ccc(C(=CC(=O)N2CCOCC2)c2ccc(Cl)cc2)cc1OC [dimethomorph (II), 3-(4-chlorophenyl)-3-(3,4-dimethoxyphenyl)-1-morpholin-4-ylpropenone]
Observed action (%) (Phytophthora infestans): 22% | Observed action (%) ([1]; 4 ppm): 0%

CO/C=C(/C(=O)OC)c1ccccc1CO/N=C(C)/C=C/c1ccc(Cl)cc1 [enestrobin (I), methyl 2-(2-[3-(4-chlorophenyl)-1-methyl-allylidenaminooxymethyl]phenyl)-3-methoxyacrylate]
Observed action (%) (Phytophthora infestans): 0% | Observed action (%) ([1]; 16 ppm): 33%
